From patent US7897582B2, “Oligonucleotide compositions and methods for the modulation of the expression of B7 protein” (Isis Pharmaceuticals, Inc., priority 2003, dated 2011)
e = 2'-O-(2-methoxyethyl) (MOE); d = 2'-deoxy (DNA)

Tests used:
B7.2 mRNA = B7.2 mRNA in lung and draining lymph nodes of ovalbumin-challenged mice, quantitative RT-PCR; assay type: in vivo, mouse
Experimental: (§1) RNA was harvested from experimental lungs removed on day 28 of the OVA protocol. B7.2 and B7.1 levels were measured by quantitative RT-PCR using the Applied Biosystems PRISM 7700 Sequence Detection System (Applied Biosystems, Foster City, Calif.). Primers and probes used for these studies were synthesized by Operon Technologies (Alameda, Calif.).

B7-1 mRNA = assay: Mouse B7-1 target mRNA reduction in L-929 fibroblasts (RT-PCR); assay type: cell-based; conditions: 100 nM
Experimental: Both of these oligonucleotides are phosphorothioates with 2′-MOE modifications on nucleotides 1-5 and 16-20, and 2′-deoxy at positions 6-15. These ASOs were identified by mouse-targeted ASO screening by target mRNA reduction in mouse cell lines. For B7-2, 19 mouse-targeted ASOs were screened by target mRNA reduction (Northern analysis) in IC-21 macrophages. Dose-response confirmation led to selection of ISIS 121874 (>70% reduction at 25 nM). For B7-1, 22 mouse-targeted ASOs were screened by target mRNA reduction (RT-PCR) in L-929 fibroblasts. Dose-response confirmation led to selection of ISIS 121844 (>70% reduction at 100 nM). No cross hybridization was predicted, and no cross-target reduction was detected in transfected cells.

[1] = system: ovalbumin-challenged Balb/c mice; assay: Ovalbumin-induced mouse model of allergic inflammation (Penh, BAL cells, histology, cytokines, spleen); assay type: in vivo
Experimental: In the mouse model of allergic inflammation, mice were sensitized and challenged with aerosolized chicken ovalbumin (OVA). Airway responsiveness was assessed by inducing airflow obstruction with a methacholine aerosol using a noninvasive method. This methodology utilized unrestrained conscious mice that are placed into the main chamber of a plthysmograph (Buxco Electronics, Inc., Troy, N.Y.). Pressure differences between this chamber and a reference chamber were used to extrapolate minute volume, breathing frequency and enhanced pause (Penh). Penh is a dimensionless parameter that is a function of total pulmonary airflow in mice (i.e., the sum of the airflow in the upper and lower respiratory tracts) during the respiratory cycle of the animal. The lower the Penh, the greater the airflow. This parameter closely correlates with lung resistance as measured by traditional invasive techniques using ventilated animals (Hamelmann . . . Gelfand, 1997). Dose-response data were plotted as raw Penh values to increasing concentrations of methacholine. […]
Female Balb/c mice (Charles Rivers Laboratory, Taconic Farms, N.Y.) were maintained in micro-isolator cages housed in a specific pathogen-free (SPF) facility. […] Animals were analyzed about 24 hours following the last nebulization using the Buxco electronics Biosystem. Lung function (Penh), lung histology (cell infiltration and mucus production), target mRNA reduction in the lung, inflammation (BAL cell type & number, cytokine levels), spleen weight and serum AST/ALT were determined. […]
Cytospins of cells recovered from BAL fluid were prepared using a Shandon Cytospin 3 (Shandon Scientific LTD, Cheshire, England). […] Total cell counts were quantified by hemocytometer and, together with the percent type by differential, were used to calculate specific cell number.
Before resection, lungs were inflated with 0.5 ml of 10% phosphate-buffered formalin and fixed overnight at 4° C. […] Parasagittal sections were analyzed by bright-field microscopy. Mucus cell content was assessed as the airway epithelium staining with PAS. […]

B7.1 mRNA = B7.1 mRNA in lung and draining lymph nodes of ovalbumin-challenged mice, quantitative RT-PCR; assay type: in vivo, mouse; conditions: lung tissue and draining lymph nodes of allergen-challenged mice
Experimental: as §1

Q: What does the source list for “ISIS 121844: antisense oligonucleotide targeted to mouse B7.1; SEQ ID NO: 286; phosphorothioate, 2′-MOE on nucleotides 1-5 and 16-20 (antisense GCTCAGCCTTTCCACTTCAG; sugars from the 5' end e5 d10 e5, all phosphorothioate, methylation of C not given here)”?
A: reduction of B7.2 mRNA in the lung (B7.2 mRNA; lung): 80%; B7.2 mRNA (B7.2 mRNA; lung tissue and draining lymph nodes of allergen-challenged mice): reduced; target mRNA reduction (B7-1 mRNA): > 70%; allergen-induced airway eosinophilia ([1]; BAL fluid): reduced; airway response to methacholine (Penh response) ([1]; intratracheal ASO, days 15-26): no effect; PMN numbers in BAL fluid ([1]; mouse, in vivo): reduced; B7.1 mRNA (B7.1 mRNA): reduced
